From patent publication US20220306659A1, “COMPOUND INHIBITING AND INDUCING DEGRADATION OF EGFR AND ALK” (BEIJING TIDE PHARMACEUTICAL CO., LTD., priority 2019, published 2022) come the findings set out here.

Experiment [1] deals with Ba/F3(EGFR^L858R/T790M/C797S) cells (Homo sapiens, UniProt P00533, T790M/C797S/L858R, cells depend on it). The experiment is described as follows: Assay of activity on Ba/F3 cells (CTG, 72 h). The conditions noted are these: read-out: IC50 (nM) Ba/F3 (EGFR^L858R/T790M/C797S). The experiment is classed as cell-based. The method in brief: (§1)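 Ba/F3 cells dependent on each EGFR triple mutant were exposed to 3-fold compound dilutions for 72 h at 37° C, 5% CO2, with CellTiter-Glo luminescence as the read-out.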
Chain of Ba/F3(EGFR^L858R/T790M/C797S) cells (P00533 whole entry T790M/C797S/L858R): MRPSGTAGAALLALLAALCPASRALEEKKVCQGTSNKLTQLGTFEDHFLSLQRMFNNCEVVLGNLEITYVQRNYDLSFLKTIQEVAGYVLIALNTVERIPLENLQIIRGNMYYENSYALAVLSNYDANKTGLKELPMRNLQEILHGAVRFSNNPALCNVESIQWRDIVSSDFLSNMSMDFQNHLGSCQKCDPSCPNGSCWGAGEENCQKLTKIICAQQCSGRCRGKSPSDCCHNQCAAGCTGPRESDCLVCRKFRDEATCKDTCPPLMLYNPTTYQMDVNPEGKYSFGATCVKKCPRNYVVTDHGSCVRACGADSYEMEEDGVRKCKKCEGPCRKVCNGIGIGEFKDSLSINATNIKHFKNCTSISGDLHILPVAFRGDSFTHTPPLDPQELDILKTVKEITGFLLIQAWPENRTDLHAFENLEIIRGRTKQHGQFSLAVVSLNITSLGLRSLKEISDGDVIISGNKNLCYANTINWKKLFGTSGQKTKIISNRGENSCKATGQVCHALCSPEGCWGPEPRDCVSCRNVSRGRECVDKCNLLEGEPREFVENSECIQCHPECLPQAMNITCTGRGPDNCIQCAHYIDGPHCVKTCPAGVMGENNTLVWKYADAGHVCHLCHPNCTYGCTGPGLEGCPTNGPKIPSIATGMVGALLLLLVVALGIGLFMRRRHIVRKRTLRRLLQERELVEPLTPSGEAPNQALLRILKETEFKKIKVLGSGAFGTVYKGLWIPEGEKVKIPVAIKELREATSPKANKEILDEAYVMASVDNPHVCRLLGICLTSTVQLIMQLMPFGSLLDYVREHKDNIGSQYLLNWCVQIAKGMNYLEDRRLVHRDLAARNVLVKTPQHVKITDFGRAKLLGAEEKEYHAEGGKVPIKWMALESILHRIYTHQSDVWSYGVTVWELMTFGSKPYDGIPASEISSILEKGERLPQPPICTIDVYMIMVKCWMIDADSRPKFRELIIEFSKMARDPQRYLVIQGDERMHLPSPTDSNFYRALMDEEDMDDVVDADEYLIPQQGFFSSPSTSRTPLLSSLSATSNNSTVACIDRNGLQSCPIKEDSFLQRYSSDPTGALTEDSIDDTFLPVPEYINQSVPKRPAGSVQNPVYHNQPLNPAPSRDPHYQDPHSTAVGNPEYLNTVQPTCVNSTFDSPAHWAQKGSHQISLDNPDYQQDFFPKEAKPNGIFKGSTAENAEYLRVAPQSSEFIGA

In experiment [2] the target is T1, Ba/F3(EML4-ALK) cells (Homo sapiens, UniProt Q9UM73).
T1 construct: fused on or other part: Q9HC35 (Echinoderm microtubule-associated protein-like 4)
In words: Assay of activity on Ba/F3(EML4-ALK) cells (CTG, 72 h). The experiment is classed as cell-based. The conditions noted are these: read-out: IC50 (nM) Ba/F3(EML4-ALK). On the procedure: Assay of activity on Ba/F3(EML4-ALK) cells
(1) Ba/F3(EML4-ALK) cells were cultured according to the requirements of ATCC, incubated in an incubator at 37° C. and 5% CO2, and analyzed by index; cells with viability of >90% can be used in the assay, and cells were seeded in a 384-well plate (PerkinElmer, 6007680) with 700 cells/well, 30 μl/well.
(2) A compound stock solution was prepared, and diluted 3× to obtain a compound dilution; 30 nL of the serial dilution was added to a 384-well plate (784075, Greiner) by Echo 550, and cells were incubated in an incubator at 37° C. and 5% CO2 for 72 h.
(3) 30 μL of CTG was added to each well, and the 384-well plate was shaken on a Plate shaker (QILINBEIER, QB-9002); the 384-well plate was incubated in the dark at 37° C. and 5% CO2 for 30 min, and the chemiluminescence value was read by Envision (PerkinElmer, EnVision 2104).
The percent inhibition rate (% inhibition) was calculated by the formula below
LUMcmpd: Luminescence value of assay compound.
LUMpositive: Average LUM value of positive drug at a concentration of 10 μM.
LUM^vehicle: Average LUM value of negative control group without drug treatment.
(§2) The nonlinear regression curve (dose response-variable slope) between the value of inhibition rate (%) and the logarithm of compound concentration was fitted with graphpad prism 8.0, the effect dose curve of compound was drawn, and the IC50 value was calculated.
Y=Bottom+(Top−Bottom)/(1+10^((LogIC50−X)*HillSlope))
X-axis: logarithm of compound concentration; Y axis: inhibition rate (% inhibition).

The target in experiment [3] is EGFR^L858R/T790M/C797S (Homo sapiens, UniProt P00533, C797S/L858R/T790M). In words: EGFR inhibitory activity assay (TK-substrate-biotin/ATP, 665/615 ratio). Particulars: kinase inhibition. The experiment is classed as biochemical. Here is the method:
EGFR Inhibitory Activity Assay
(1) A compound stock solution was prepared and diluted 3× to obtain a compound dilution; 10 nL of the compound dilution was transferred to a 384-well plate (784075, Greiner) by Echo 550;
(2) The plate was sealed, and centrifuged at 1,000 g for 1 min;
(4) 5 μl of the 2×EGFR protein working solution was added to the 384-well plate from step (2), centrifuged at 1,000 g for 30 s, and allowed to stand at room temperature (mixed thoroughly) for 10 min;
(6) 5 µL of the TK-substrate-biotin and ATP (the mixture prepared in step (5)) was added to the 384-well plate from step (4) to initiate the reaction;
(7) The mixture was centrifuged at 1,000 g for 30 s; the plate was sealed, and allowed to stand (and reacted) at room temperature for 40 min;
(8) 4×Sa-XL 665 and TK-antibody-Cryptate were prepared with detection buffer;
(9) 5 µL of the Sa-XL 665 and 5 µL of the TK-antibody-Cryptate were added successively to the 384-well plate from step (7);
(10) The mixture was centrifuged at 1,000 g for 30 s, and allowed to stand (reacted) at room temperature for 1 h;
(11) The fluorescence values were read at 615 nm and 665 nm by enzyme labeling instrument (PerkinElmer, 74785).
The ratio (665/615) of each well was calculated.
(§3) Formula of inhibition rate (%): […]
Ratiocmpd: Ratio (665/615) value of assay compound.
Ratiopositive: Average ratio (665/615) value of positive control.
Ratiovehicle: Average ratio (665/615) value of negative control.
as §2

In experiment [4] the target is ALK^G1202R (Homo sapiens, UniProt Q9UM73, G1202R). The experiment is described as follows: Assay of activity on ALK kinase. In kind it is biochemical. Particulars: kinase inhibition. Here is the method:
(§4) Assay of activity on ALK kinase
(§5) (1) A compound stock solution was prepared;
(§6) (2) The compound stock solution was diluted 3× to obtain a compound dilution;
(§7) (5) 5 μl of the 2× kinase working solution was added to the reaction plate, centrifuged at 1,000 rpm for 1 min, and incubated at 25° C. for 15 min;
(§8) (7) 5 μl of the TK-substrate-biotin and ATP (the mixture prepared in step (6)) was added to initiate the reaction;
(§9) (8) The mixture was centrifuged at 1,000 g for 30 s; the plate was sealed, and incubated at 25° C. for 60 min;
(§10) (11) The mixture was centrifuged at 1,000 g for 1 min, and incubated at 25° C. for 60 min;
as §3, §2
(§11) Y=Bottom+(Top−Bottom)/(1+10^((LogIC50−X)*Hill Slope))
(§12) X-axis: logarithm of compound concentration; Y axis: inhibition rate ([…])

The target of experiment [5] is ALK (Homo sapiens, UniProt Q9UM73). In words: Assay of activity on ALK kinase. The experiment is classed as biochemical. Particulars: kinase inhibition. Here is the method:
as §4, §5, §6, §7, §8, §9, §10, §3, §2, §11, §12

Experiment [6] concerns the target Ba/F3(EGFR^Del19/T790M/C797S) cells (Homo sapiens, UniProt P00533, DEL746-750/T790M/C797S, cells depend on it). The experiment is described as follows: Assay of activity on Ba/F3 cells (CTG, 72 h). In kind it is cell-based. Particulars: read-out: IC50 (nM) Ba/F3 (EGFR^Del19/T790M/C797S). In short, it runs like this:
as §1

The structures appear in SMILES notation.

Chain of ALK (Q9UM73 19-1620): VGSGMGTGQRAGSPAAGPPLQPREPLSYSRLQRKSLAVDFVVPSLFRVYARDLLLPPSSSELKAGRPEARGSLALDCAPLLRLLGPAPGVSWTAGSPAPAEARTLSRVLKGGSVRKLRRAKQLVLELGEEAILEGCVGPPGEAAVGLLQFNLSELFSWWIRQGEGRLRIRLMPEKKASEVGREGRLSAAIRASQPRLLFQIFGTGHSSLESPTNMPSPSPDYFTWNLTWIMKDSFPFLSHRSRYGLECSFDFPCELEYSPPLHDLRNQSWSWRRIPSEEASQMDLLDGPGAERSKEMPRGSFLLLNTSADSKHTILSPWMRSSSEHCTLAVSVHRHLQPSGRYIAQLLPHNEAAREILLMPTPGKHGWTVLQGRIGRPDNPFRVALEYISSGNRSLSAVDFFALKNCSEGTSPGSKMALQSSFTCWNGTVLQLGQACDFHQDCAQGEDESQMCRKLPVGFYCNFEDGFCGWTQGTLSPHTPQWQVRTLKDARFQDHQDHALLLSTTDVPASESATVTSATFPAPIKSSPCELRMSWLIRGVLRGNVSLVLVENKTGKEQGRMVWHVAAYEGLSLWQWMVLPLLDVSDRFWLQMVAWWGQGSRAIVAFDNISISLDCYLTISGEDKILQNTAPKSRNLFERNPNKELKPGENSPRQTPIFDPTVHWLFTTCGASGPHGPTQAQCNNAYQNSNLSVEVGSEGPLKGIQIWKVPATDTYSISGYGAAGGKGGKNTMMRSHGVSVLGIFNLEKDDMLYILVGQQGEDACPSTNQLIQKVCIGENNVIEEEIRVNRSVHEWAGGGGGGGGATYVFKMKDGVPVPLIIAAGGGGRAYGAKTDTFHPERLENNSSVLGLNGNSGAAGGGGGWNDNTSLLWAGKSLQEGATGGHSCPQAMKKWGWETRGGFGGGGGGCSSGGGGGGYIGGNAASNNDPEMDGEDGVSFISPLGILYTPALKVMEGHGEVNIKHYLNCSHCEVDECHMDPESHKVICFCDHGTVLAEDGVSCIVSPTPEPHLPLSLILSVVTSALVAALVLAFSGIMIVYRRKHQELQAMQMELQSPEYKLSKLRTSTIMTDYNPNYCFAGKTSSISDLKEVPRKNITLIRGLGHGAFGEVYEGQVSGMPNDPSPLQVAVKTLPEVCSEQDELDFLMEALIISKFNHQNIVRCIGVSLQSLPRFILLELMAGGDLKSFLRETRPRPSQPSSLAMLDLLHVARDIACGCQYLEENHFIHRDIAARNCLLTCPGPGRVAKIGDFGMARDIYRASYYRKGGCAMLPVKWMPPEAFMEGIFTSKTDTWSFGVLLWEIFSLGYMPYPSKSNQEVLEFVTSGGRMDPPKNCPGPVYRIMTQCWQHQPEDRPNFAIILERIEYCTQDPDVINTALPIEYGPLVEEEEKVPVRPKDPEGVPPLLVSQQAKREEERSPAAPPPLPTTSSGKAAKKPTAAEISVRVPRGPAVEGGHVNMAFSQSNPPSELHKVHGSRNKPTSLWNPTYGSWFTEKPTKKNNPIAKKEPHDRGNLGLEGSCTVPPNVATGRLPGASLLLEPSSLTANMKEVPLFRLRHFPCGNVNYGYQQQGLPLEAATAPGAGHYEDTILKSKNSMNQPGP
Chain of ALK^G1202R (Q9UM73 19-1620 G1202R): as the sequence (Q9UM73 19-1620) above, with G1184R counted along it
Chain of EGFR^L858R/T790M/C797S (P00533 25-1210 T790M/C797S/L858R): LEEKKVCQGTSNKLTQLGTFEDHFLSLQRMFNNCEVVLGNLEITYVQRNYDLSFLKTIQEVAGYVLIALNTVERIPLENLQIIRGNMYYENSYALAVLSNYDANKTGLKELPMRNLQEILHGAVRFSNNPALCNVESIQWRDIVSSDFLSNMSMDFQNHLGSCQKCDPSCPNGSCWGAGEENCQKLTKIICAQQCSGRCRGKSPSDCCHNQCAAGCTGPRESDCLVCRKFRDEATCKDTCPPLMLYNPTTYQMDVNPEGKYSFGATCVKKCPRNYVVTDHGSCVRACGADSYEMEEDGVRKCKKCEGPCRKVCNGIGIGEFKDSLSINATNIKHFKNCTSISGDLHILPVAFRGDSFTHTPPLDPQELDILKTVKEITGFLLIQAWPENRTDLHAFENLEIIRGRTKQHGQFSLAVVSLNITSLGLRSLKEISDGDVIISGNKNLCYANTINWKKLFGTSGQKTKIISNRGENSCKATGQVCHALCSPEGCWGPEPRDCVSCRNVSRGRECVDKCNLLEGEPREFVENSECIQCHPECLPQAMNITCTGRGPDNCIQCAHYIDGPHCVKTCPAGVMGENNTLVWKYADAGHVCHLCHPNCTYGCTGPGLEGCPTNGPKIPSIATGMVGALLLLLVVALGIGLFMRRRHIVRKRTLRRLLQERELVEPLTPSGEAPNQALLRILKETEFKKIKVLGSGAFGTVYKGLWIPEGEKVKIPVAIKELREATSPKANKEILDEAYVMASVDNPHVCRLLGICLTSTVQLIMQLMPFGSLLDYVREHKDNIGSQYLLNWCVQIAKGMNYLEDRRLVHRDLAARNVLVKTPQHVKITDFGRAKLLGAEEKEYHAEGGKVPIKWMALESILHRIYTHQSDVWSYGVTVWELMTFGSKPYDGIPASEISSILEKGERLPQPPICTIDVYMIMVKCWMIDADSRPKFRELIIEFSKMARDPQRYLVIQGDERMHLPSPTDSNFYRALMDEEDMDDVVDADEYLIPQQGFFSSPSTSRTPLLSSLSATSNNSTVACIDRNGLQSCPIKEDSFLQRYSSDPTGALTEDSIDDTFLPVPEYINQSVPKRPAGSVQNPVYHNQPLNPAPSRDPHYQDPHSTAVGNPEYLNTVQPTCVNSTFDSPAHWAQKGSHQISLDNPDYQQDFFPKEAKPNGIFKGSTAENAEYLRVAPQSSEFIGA

Consider `COc1cc(N2CCC(N3CCN(CCCCCCCNc4cccc5c4CN(C4CCC(=O)NC4=O)C5=O)CC3)CC2)ccc1Nc1ncc(Cl)c(Nc2ccccc2P(C)(C)=O)n1` (centres unmarked) [Compound A12, 3-(4-((7-(4-(1-(4-((5-chloro-4-((2-(dimethylphosphoryl)phenyl)amino)pyrimidin-2-yl)amino)-3-methoxyphenyl)piperidin-4-yl)piperazin-1-yl)heptyl)amino)-1-oxoisoindolin-2-yl)piperidine-2,6-dione], for which the GI50 in experiment [1] and in experiment [2] was 1 to 100 nM throughout. The IC50 fell in the range of 1 to 100 nM in experiment [3], 101 to 200 nM in experiment [4] and 1 to 100 nM in experiment [5].
As for `COc1cc(N2CCC(N3CCN(CCCCCCCCCNc4cccc5c4CN(C4CCC(=O)NC4=O)C5=O)CC3)CC2)ccc1Nc1ncc(Cl)c(Nc2ccccc2P(C)(C)=O)n1` (centres unmarked) [Compound A13, 3-(4-((9-(4-(1-(4-((5-chloro-4-((2-(dimethylphosphoryl)phenyl)amino)pyrimidin-2-yl)amino)-3-methoxyphenyl)piperidin-4-yl)piperazin-1-yl)nonyl)amino)-1-oxoisoindolin-2-yl)piperidine-2,6-dione], the GI50 in experiment [1] was 101 to 200 nM; in experiment [2], 1 to 100 nM. The half-inhibitory concentration (IC50) in experiment [3] is 101 to 200 nM; in experiment [4], greater than 300 nM; in experiment [5] it was 1 to 100 nM.
`COc1cc(N2CCC(N3CCN(CC(=O)N4CC(COc5cccc6c5C(=O)N(C5CCC(=O)NC5=O)C6=O)C4)CC3)CC2)ccc1Nc1ncc(Cl)c(Nc2ccccc2P(C)(C)=O)n1` (centres unmarked) [Compound C94, 4-((1-(2-(4-(1-(4-((5-chloro-4-((2-(dimethylphosphoryl)phenyl)amino)pyrimidin-2-yl)amino)-3-methoxyphenyl)piperidin-4-yl)piperazin-1-yl)acetyl)azetidin-3-yl)methoxy)-2-(2,6-dioxopiperidin-3-yl)isoindoline-1,3-dione]: the GI50 in experiment [1] is greater than 300 nM. In addition, the IC50 in experiment [3], in experiment [4] and in experiment [5] was 1 to 100 nM in each case.
With `COc1cc(N2CCC(N3CCN(CC4(COc5cccc6c5C(=O)N(C5CCC(=O)NC5=O)C6=O)CC4)CC3)CC2)ccc1Nc1ncc(Cl)c(Nc2ccccc2P(C)(C)=O)n1` (centres unmarked) [Compound C106, 4-((1-((4-(1-(4-((5-chloro-4-((2-(dimethylphosphoryl)phenyl)amino)pyrimidin-2-yl)amino)-3-methoxyphenyl)piperidin-4-yl)piperazin-1-yl)methyl)cyclopropyl)methoxy)-2-(2,6-dioxopiperidin-3-yl)isoindoline-1,3-dione], the GI50 in experiment [1] was greater than 300 nM. The concentration for half-maximal inhibition (IC50) was in the range of 1 to 100 nM in experiment [3], 201 to 300 nM in experiment [4] and 1 to 100 nM in experiment [5].
On to `COc1cc(N2CCC(N3CCN(CC(=O)OCC4(COc5cccc6c5C(=O)N(C5CCC(=O)NC5=O)C6=O)CC4)CC3)CC2)ccc1Nc1ncc(Cl)c(Nc2ccccc2P(C)(C)=O)n1` (centres unmarked) [Compound C107, 2-(4-(1-(4-((5-chloro-4-((2-(dimethylphosphoryl)phenyl)amino)pyrimidin-2-yl)amino)-3-methoxyphenyl)piperidin-4-yl)piperazin-1-yl)acetate (1-(((2-(2,6-dioxopiperidin-3-yl)-1,3-dioxoisoindolin-4-yl)oxy)methyl)cyclopropyl)methyl ester], for which the GI50 in experiment [1] fell in the range of 101 to 200 nM. Moreover, the values for the IC50 in experiment [3], in experiment [4] and in experiment [5] were 1 to 100 nM, 101 to 200 nM and 1 to 100 nM, respectively.
Turning to `COc1cc(N2CCC(N3CCN(CC(=O)N4CCC[C@H]4COc4cccc5c4C(=O)N(C4CCC(=O)NC4=O)C5=O)CC3)CC2)ccc1Nc1ncc(Cl)c(Nc2ccccc2P(C)(C)=O)n1` (stereo partly drawn) [Compound C109, 4-(((S)-1-(2-(4-(1-(4-((5-chloro-4-((2-(dimethylphosphoryl)phenyl)amino)pyrimidin-2-yl)amino)-3-methoxyphenyl)piperidin-4-yl)piperazin-1-yl)acetyl)pyrrolidin-2-yl)methoxy)-2-(2,6-dioxopiperidin-3-yl)isoindoline-1,3-dione], the GI50 in experiment [1] is greater than 300 nM. The IC50 in experiment [3], in experiment [4] and in experiment [5] was 1 to 100 nM each time.
For `COc1cc(N2CCC(N3CCN(CCCCCC#Cc4ccc5c(c4)CN(C4CCC(=O)NC4=O)C5=O)CC3)CC2)ccc1Nc1ncc(Cl)c(Nc2ccccc2P(C)(C)=O)n1` (centres unmarked) [Compound C190, 3-(5-(7-(4-(1-(4-((5-chloro-4-((2-(dimethylphosphoryl)phenyl)amino)pyrimidin-2-yl)amino)-3-methoxyphenyl)piperidin-4-yl)piperazin-1-yl)hept-1-yn-1-yl)-1-oxoisoindolin-2-yl)piperidine-2,6-dione], the GI50 in experiment [6] and in experiment [2] was 1 to 100 nM throughout. For the same compound, the figures for the half-maximal inhibitory concentration (IC50) in experiment [4] and in experiment [5] were 201 to 300 nM and 1 to 100 nM, respectively.
Turning to `COc1cc(N2CCC(N3CCN(CCOCC#Cc4ccc5c(c4)CN(C4CCC(=O)NC4=O)C5=O)CC3)CC2)ccc1Nc1ncc(Cl)c(Nc2ccccc2P(C)(C)=O)n1` (centres unmarked) [Compound C193, 3-(5-(3-(2-(4-(1-(4-((5-chloro-4-((2-(dimethylphosphoryl)phenyl)amino)pyrimidin-2-yl)amino)-3-methoxyphenyl)piperidin-4-yl)piperazin-1-yl)ethoxy)prop-1-yn-1-yl)-1-oxoisoindolin-2-yl)piperidine-2,6-dione], the GI50 in experiment [6] and in experiment [2] was 1 to 100 nM throughout. For the same compound, the results for the IC50 in experiment [4] and in experiment [5] were 201 to 300 nM and 1 to 100 nM, respectively.
As to `COc1cc(N2CCC(N3CCN(CCCCCCC#Cc4ccc5c(c4)CN(C4CCC(=O)NC4=O)C5=O)CC3)CC2)ccc1Nc1ncc(Cl)c(Nc2ccccc2P(C)(C)=O)n1` (centres unmarked) [Compound C194, 3-(5-(8-(4-(1-(4-((5-chloro-4-((2-(dimethylphosphoryl)phenyl)amino)pyrimidin-2-yl)amino)-3-methoxyphenyl)piperidin-4-yl)piperazin-1-yl)oct-1-yn-1-yl)-1-oxoisoindolin-2-yl)piperidine-2,6-dione], the GI50 in experiment [6] and in experiment [2] was 1 to 100 nM throughout. Moreover, the half-inhibitory concentration (IC50) was greater than 300 nM in experiment [4] and 1 to 100 nM in experiment [5].
